Assay results taken from patent publication US20040038861A1, “Methods and compositions for normalizing lipid levels in mammalian tissues” (priority 2001, published 2004).

Experiments:
soleus muscle [1] = assay: Triglyceride and free fatty acid content (enzymatic) in isolated soleus muscle of rats fed high fat diets; format: cell-based, rat; settings: diet with 40% added lard, 100 nM amylin or CGRP-1, 4.4 μM norepinephrine, 1 h
Excerpt: (§1) High-fatted rats. Groups of male Wistar rats (n=21/diet) were ad libitum fed high-fat diets containing standard rat chow to which 40% (w/w) of lard, corn oil or olive oil had been added, from the time of weaning (age=21 d) until sacrifice at 50 d. Triacylglycerol from lard contains predominantly saturated fatty acids; that from corn oil […], see Table 4.
(§2) Soleus muscle tissue isolation and incuhation.Immersion and incubation media was Krebs-Henseleit buffer (KHB) containing 118.5 mM NaCl, 4.75 mM KCl, 1.18 mM MgSO4.7H2O and KH2PO4, 24.8 mM NaHCO3, 2.54 mM CaCl2 and 10 mM d-glucose. The medium was gassed continuously with 95% O2/5% CO2. […] Soleus muscles of both legs were excised keeping the tissue immersed in KHB; muscles were separated into two equal parts and transferred to the incubation flasks. At the completion of incubation the muscles were snap frozen in liquid nitrogen, and then trimmed of connective tissue and all visible fat. The muscle strips were stored at −80° C. until analysis.
(§3) Lipid extraction and chromatographic separation of fatty acids. Total lipids were extracted from muscle strips by a modified version of the method of Bligh and Dyer (Gorski et al., 1988, Mol & Cell Biochem 178:113-118; 1. Bligh et al., 1959, Can J Biochem Physiol 37: 911-917). Muscles were homogenised (Soniprep 150) in 0.4 ml of deionised water. Solvent volumes used herein were varied according to the water content of the muscle (ie muscle weight) as described (Bligh & Dyer, supra). 2 vols of methanol containing 0.005% butylated hydroxy toluene (BHT) and 1 vol chloroform were added to the muscle suspension. Homogenates were vortexed at maximum speed for 2 minutes and centrifuged at 2,500 g for 4 minutes. Supernatants were recovered and pellets re-extracted with 2 vol methanol, 1 vol chloroform and 0.8 vol 0.2 N HCl. Residues were vortexed for 2 min then centrifuged at 3,500 g for 3 min. After centrifugation the combined supernatants were diluted with 2v each of milli Q water and chloroform and the phases separated by centrifugation at 3,500 g for 4 minutes. The lower chloroform phase was recovered, neutralised by dropwise addition of 0.2 N methanolic NH4OH and evaporated down in a stream of N2. The samples were stored at −80° C. until required.
(§4) Aminopropyl phase (250 mg) was packed into 16 ml teflon columns with teflon frits placed at the top and bottom of the bonded phase. Columns were placed in a Vac Elut apparatus and washed twice with 2 ml portions of hexane (Prasad et al., 1988, J Chromato 428: 221-228; Kaluzny et al., 1985, J Lipid Res 26: 135-140). The dry lipid samples were taken up in two 0.150 ml portions of chloroform and applied to the column under atmospheric pressure. After adsorption the neutral lipids were eluted with 4 ml of chloroform-2-propanol (2:1, v/v) and the free fatty acids eluted with 4 ml of 2% acetic acid in diethyl ether. The solvent containing the free fatty acids was dried under a stream of N2.
Determination of tissue free fatty acids and triacylglycerol concentration by enzymatic analyses. Free fatty acids were separated from total lipid, evaporated under a stream of N2 and stored at −80° C. until analysis. Samples were dissolved in 50 μl of warm ethanol (35-40° C.), and 0.625 ml of a Triton X-100 (6% w/v) solution was added once the ethanol reached room temperature. The solution was stirred for 30 min, then made up to 0.825 ml with the Triton solution. Free fatty acids were quantified using a commercial method (Boehringer Mannheim) adapted for micro analyses (Cobas Mira, Roche Diagnostics), with palmitic acid standards. Triacyl glycerol levels were quantified in the total lipid fraction (Pointe Scientific) with a glycerol standard.
Total lipid was extracted and quantitated. Results are shown in FIGS. 18A NEFA and 18B triglyceride.

soleus muscle [2] = assay: Individual free fatty acids by gas chromatography in soleus muscle of rats fed high fat diets; set-up: species or system rat; settings: 1 hour, GC
Excerpt: as §1, §2, §3, §4
Gas-liquid chromatographic analysis. Dry free fatty acid residues were processed for derivatisation of methyl esters by the boron trifluoride-methanol method (Prasad, supra). 1 ml of boron trifluoride in methanol (BF3) was added to each sample, the sample vials were heated at 70° C. for 5 minutes, shaken vigorously, and baked for a further 10 minutes. Once the samples reached room temperature 0.5 ml milli Q water was added, the sample vials shaken, 0.1 ml heptane was added and the sample shaken again. 0.05 ml of the top heptane layer was removed for GLC analysis. A Model HP5890 Plus Series 2 (Hewlett-Packard) gas chromatograph equipped with a DB-225 column was used to separate the methyl esters of the fatty acids and a Model HP 5890 GC with a Model HP 5973 MS (Hewlett-Packard) GC/MS used to confirm the identity of individual free fatty acids. […]

soleus muscle [3] = assay: Lipid metabolites (free fatty acid, glycerol, triglyceride; enzymatic analysis) in isolated soleus muscle from normally fed rats; format: cell-based, rat; settings: soleus, normally fed rats, 100 nM amylin or CGRP-1, 4.4 μM norepinephrine
[4] = rats fed diet high in olive oil

How did the “soleus muscle triglyceride content” value (soleus muscle [1]; control 1.14±0.16) turn out when `NC[C@H](O)c1ccc(O)c(O)c1` [Norepinephrine, norepinephrine] was run?
Its value is 0.69 ± 0.09 µmol/g.

What about the “soleus muscle free fatty acid content” value (soleus muscle [1]; control 43±8) of the same compound?
The value was 75 ± 7 nmol/g.

And the “free fatty acid adrenic C22:4” value (soleus muscle [2]; rats fed diet high in corn oil)?
Its value is 0.05 ± 0.004 nmol/g wwt.

What about the “free fatty acid arachidic C20:0” value (soleus muscle [2]; rats fed diet high in corn oil) of the same compound?
The value was 0.03 ± 0.002 nmol/g wwt.

What about the “free fatty acid arachidonic C20:4” value (soleus muscle [2]; rats fed diet high in corn oil) of the same compound?
Its value is 0.08 ± 0.009 nmol/g wwt.

And the “free fatty acid cervonic C22:6” value (soleus muscle [2]; rats fed diet high in corn oil)?
The value was 0.04 ± 0.003 nmol/g wwt.

And the “free fatty acid linoleic C18:2” value (soleus muscle [2]; rats fed diet high in corn oil)?
Its value is 0.14 ± 0.02 nmol/g wwt.

What about the “free fatty acid linolenic C18:3” value (soleus muscle [2]; rats fed diet high in corn oil) of the same compound?
Its value is 0.13 ± 0.01 nmol/g wwt.

What about the “free fatty acid margaric C17:0” value (soleus muscle [2]; rats fed diet high in corn oil) of the same compound?
Its value is 0.04 ± 0.006 nmol/g wwt.

What about the “free fatty acid myristic C14:0” value (soleus muscle [2]; rats fed diet high in corn oil) of the same compound?
Its value is 0.02 ± 0.002 nmol/g wwt.

And the “free fatty acid oleic C18:1” value (soleus muscle [2]; rats fed diet high in corn oil)?
Its value is 0.12 ± 0.02 nmol/g wwt.

What about the “free fatty acid palmitic C16:0” value (soleus muscle [2]; rats fed diet high in corn oil) of the same compound?
Its value is 0.09 ± 0.01 nmol/g wwt.

And the “free fatty acid palmitoleic (n-7) C16:1” value (soleus muscle [2]; rats fed diet high in corn oil)?
The value was 0.007 ± 0.0005 nmol/g wwt.

And the “free fatty acid palmitoleic (n-9) C16:1” value (soleus muscle [2]; rats fed diet high in corn oil)?
Its value is 0.15 ± 0.01 nmol/g wwt.

What about the “free fatty acid pentadecanoic C15:0” value (soleus muscle [2]; rats fed diet high in corn oil) of the same compound?
Its value is 0.04 ± 0.005 nmol/g wwt.

And the “free fatty acid stearic C18:0” value (soleus muscle [2]; rats fed diet high in corn oil)?
The value was 0.11 ± 0.008 nmol/g wwt.

What about the “free fatty acid timnodonic C20:5” value (soleus muscle [2]; rats fed diet high in corn oil) of the same compound?
Its value is 0.05 ± 0.005 nmol/g wwt.

And the “free fatty acid vaccenic C18:1” value (soleus muscle [2]; rats fed diet high in corn oil)?
The value was 0.02 ± 0.001 nmol/g wwt.

What about the “free fatty acid adrenic C22:4” value (soleus muscle [2]; rats fed diet high in lard) of the same compound?
The value was 0.02 ± 0.003 nmol/g wwt.

What about the “free fatty acid arachidic C20:0” value (soleus muscle [2]; rats fed diet high in lard) of the same compound?
The value was 0.03 ± 0.004 nmol/g wwt.

And the “free fatty acid arachidonic C20:4” value (soleus muscle [2]; rats fed diet high in lard)?
Its value is 0.012 ± 0.003 nmol/g wwt.

And the “free fatty acid cervonic C22:6” value (soleus muscle [2]; rats fed diet high in lard)?
The value was 0.01 ± 0.001 nmol/g wwt.

And the “free fatty acid linoleic C18:2” value (soleus muscle [2]; rats fed diet high in lard)?
Its value is 0.09 ± 0.003 nmol/g wwt.

What about the “free fatty acid margaric C17:0” value (soleus muscle [2]; rats fed diet high in lard) of the same compound?
The value was 0.08 ± 0.008 nmol/g wwt.

And the “free fatty acid myristic C14:0” value (soleus muscle [2]; rats fed diet high in lard)?
Its value is 0.04 ± 0.007 nmol/g wwt.

And the “free fatty acid oleic C18:1” value (soleus muscle [2]; rats fed diet high in lard)?
The value was 0.21 ± 0.01 nmol/g wwt.

And the “free fatty acid palmitic C16:0” value (soleus muscle [2]; rats fed diet high in lard)?
The value was 0.23 ± 0.02 nmol/g wwt.

What about the “free fatty acid palmitoleic (n-7) C16:1” value (soleus muscle [2]; rats fed diet high in lard) of the same compound?
The value was 0.02 ± 0.0008 nmol/g wwt.

And the “free fatty acid palmitoleic (n-9) C16:1” value (soleus muscle [2]; rats fed diet high in lard)?
Its value is 0.01 ± 0.001 nmol/g wwt.

What about the “free fatty acid pentadecanoic C15:0” value (soleus muscle [2]; rats fed diet high in lard) of the same compound?
The value was 0.13 ± 0.02 nmol/g wwt.

And the “free fatty acid stearic C18:0” value (soleus muscle [2]; rats fed diet high in lard)?
Its value is 0.22 ± 0.01 nmol/g wwt.

What about the “free fatty acid timnodonic C20:5” value (soleus muscle [2]; rats fed diet high in lard) of the same compound?
Its value is 0.02 ± 0.004 nmol/g wwt.

What about the “free fatty acid vaccenic C18:1” value (soleus muscle [2]; rats fed diet high in lard) of the same compound?
Its value is 0.07 ± 0.003 nmol/g wwt.

What about the “free fatty acid adrenic C22:4” value (soleus muscle [2]; [4]) of the same compound?
Its value is 0.02 ± 0.0007 nmol/g wwt.

What about the “free fatty acid arachidic C20:0” value (soleus muscle [2]; [4]) of the same compound?
The value was 0.009 ± 0.0004 nmol/g wwt.

What about the “free fatty acid arachidonic C20:4” value (soleus muscle [2]; [4]) of the same compound?
The value was 0.03 ± 0.0008 nmol/g wwt.

And the “free fatty acid cervonic C22:6” value (soleus muscle [2]; [4])?
Its value is 0.12 ± 0.03 nmol/g wwt.

And the “free fatty acid linoleic C18:2” value (soleus muscle [2]; [4])?
Its value is 0.04 ± 0.009 nmol/g wwt.

What about the “free fatty acid linolenic C18:3” value (soleus muscle [2]; [4]) of the same compound?
The value was 0.04 ± 0.01 nmol/g wwt.

What about the “free fatty acid margaric C17:0” value (soleus muscle [2]; [4]) of the same compound?
Its value is 0.01 ± 0.001 nmol/g wwt.

What about the “free fatty acid myristic C14:0” value (soleus muscle [2]; [4]) of the same compound?
Its value is 0.005 ± 0.0002 nmol/g wwt.

And the “free fatty acid oleic C18:1” value (soleus muscle [2]; [4])?
The value was 0.28 ± 0.03 nmol/g wwt.

What about the “free fatty acid palmitic C16:0” value (soleus muscle [2]; [4]) of the same compound?
Its value is 0.19 ± 0.002 nmol/g wwt.

What about the “free fatty acid palmitoleic (n-7) C16:1” value (soleus muscle [2]; [4]) of the same compound?
The value was 0.03 ± 0.009 nmol/g wwt.

And the “free fatty acid palmitoleic (n-9) C16:1” value (soleus muscle [2]; [4])?
Its value is 0.23 ± 0.01 nmol/g wwt.

What about the “free fatty acid pentadecanoic C15:0” value (soleus muscle [2]; [4]) of the same compound?
Its value is 0.01 ± 0.0004 nmol/g wwt.

What about the “free fatty acid stearic C18:0” value (soleus muscle [2]; [4]) of the same compound?
The value was 0.16 ± 0.006 nmol/g wwt.

What about the “free fatty acid timnodonic C20:5” value (soleus muscle [2]; [4]) of the same compound?
Its value is 0.04 ± 0.004 nmol/g wwt.

What about the “free fatty acid vaccenic C18:1” value (soleus muscle [2]; [4]) of the same compound?
Its value is 0.2 ± 0.003 nmol/g wwt.

What about the “triacylglycerol (triglyceride) content” value (soleus muscle [3]; 60-min, control 1.17±0.15, not significant) of the same compound?
The value was 0.81 ± 0.09 µmol/g.

What about the “intramuscular free fatty acid content” value (soleus muscle [3]; 1 h, 23.7 nM insulin, control 78±21) of the same compound?
The value was 295 ± 27 nmol/g.

And the intramuscular glycerol content (soleus muscle [3]; 1 h, control 0.07±0.007)?
Its intramuscular glycerol content is 0.04 ± 0.005 nmol/g.
